Results on 29 molecules are retold here after PubChem BioAssay AID2103 (Johns Hopkins Ion Channel Center, 2009).

Activity calls are given as the source filed them.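 How the source made its calls: active means hERG current rise at or above blocker-only control mean plus 3 SD, readout 0 or more; inactive means the rest.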

Voltage-gated inwardly rectifying potassium channel KCNH2 (Homo sapiens), sequence (Q12809 whole entry, looked up): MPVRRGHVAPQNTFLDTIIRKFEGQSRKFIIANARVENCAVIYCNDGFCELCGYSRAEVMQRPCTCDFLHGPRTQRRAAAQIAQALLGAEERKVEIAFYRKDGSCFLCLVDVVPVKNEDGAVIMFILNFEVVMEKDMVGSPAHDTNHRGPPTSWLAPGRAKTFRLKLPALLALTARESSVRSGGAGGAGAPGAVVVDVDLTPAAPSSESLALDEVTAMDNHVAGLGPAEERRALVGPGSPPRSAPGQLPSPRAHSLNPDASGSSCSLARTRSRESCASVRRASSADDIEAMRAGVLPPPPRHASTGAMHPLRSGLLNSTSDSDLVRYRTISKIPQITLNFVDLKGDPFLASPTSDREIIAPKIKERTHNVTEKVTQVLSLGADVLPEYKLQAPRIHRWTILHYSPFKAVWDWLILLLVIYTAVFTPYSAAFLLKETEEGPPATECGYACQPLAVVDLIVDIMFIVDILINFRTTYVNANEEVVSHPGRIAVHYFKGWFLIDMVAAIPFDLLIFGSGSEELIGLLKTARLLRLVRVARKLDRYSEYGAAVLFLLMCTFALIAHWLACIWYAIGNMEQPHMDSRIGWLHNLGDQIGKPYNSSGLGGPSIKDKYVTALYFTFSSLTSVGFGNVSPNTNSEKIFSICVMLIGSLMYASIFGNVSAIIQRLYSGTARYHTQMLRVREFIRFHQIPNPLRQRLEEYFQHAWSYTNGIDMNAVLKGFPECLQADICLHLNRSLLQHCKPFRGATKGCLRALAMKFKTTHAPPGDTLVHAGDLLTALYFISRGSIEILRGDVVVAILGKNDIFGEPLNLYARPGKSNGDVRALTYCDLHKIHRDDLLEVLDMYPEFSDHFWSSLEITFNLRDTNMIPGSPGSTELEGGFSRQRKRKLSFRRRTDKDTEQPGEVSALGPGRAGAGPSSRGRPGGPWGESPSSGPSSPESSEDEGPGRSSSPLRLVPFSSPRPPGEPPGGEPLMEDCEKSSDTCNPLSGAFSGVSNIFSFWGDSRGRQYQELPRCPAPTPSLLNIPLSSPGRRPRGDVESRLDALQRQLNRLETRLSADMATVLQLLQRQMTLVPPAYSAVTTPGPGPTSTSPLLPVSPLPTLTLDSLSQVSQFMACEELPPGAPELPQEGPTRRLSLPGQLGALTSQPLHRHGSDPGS

The experiment concerns the target Voltage-gated inwardly rectifying potassium channel KCNH2 (Homo sapiens) (UniProt Q12809). The experiment is described as follows: hERG tail current rescue from dofetilide, cell-based, Ionworks automated patch clamp, CHO-hERG, secondary (AID 2103). The note with it: dofetilide IC70, at 10 µM, active compounds read high. (In general: Block of hERG is tested as a sign of cardiac risk.)
`COC(=O)c1c(NS(=O)(=O)c2ccc3ccccc3c2)sc2c1CCCC2`: the current change vs dofetilide control, less the hit threshold is -46.2% (inactive).

Consider `CCOC(=O)Cc1nc2ccccc2o1`, for which the current change vs dofetilide control, less the hit threshold was -49.3% (inactive).

Consider `Cc1nc2ccccc2n1-c1ccccc1`, for which the current change vs dofetilide control, less the hit threshold is -51.1% (inactive).

Take `O=C(O)c1ccc(Cl)cc1Nc1nc2cc(Cl)ccc2o1`: the current change vs dofetilide control, less the hit threshold is -48.7% (inactive).

On to `CCc1ccc2nc(NC(=O)c3cc(C)on3)sc2c1`, for which the current change vs dofetilide control, less the hit threshold was -43.6% (inactive).

As for `COc1ccc(C(=O)Nc2ccccc2C(=O)O)cc1Cl`, the current change vs dofetilide control, less the hit threshold is -54.3% (inactive).

On to `N#Cc1c(NC(=O)c2cc(-n3cnnc3)ccc2Cl)sc2c1CCCC2`, for which the current change vs dofetilide control, less the hit threshold is -43.1% (inactive).

Regarding `O=C1C2CC=CCC2C(=O)N1c1ccc(Cc2ccncc2)cc1` (centres undefined), the current change vs dofetilide control, less the hit threshold is -31.9% (inactive).

For `CCCN(C(=O)c1ccco1)c1nnc(-c2ccncc2)s1`, the current change vs dofetilide control, less the hit threshold was -29.1% (inactive).

Turning to `CCOC(=O)C1CCN(S(=O)(=O)c2cccc3nonc23)CC1`, the current change vs dofetilide control, less the hit threshold was -37.7% (inactive).

Regarding `NC(=O)C1CCN(C(=O)c2cc3c(s2)CCCC3)CC1`, the current change vs dofetilide control, less the hit threshold is -52.8% (inactive).

For the molecule `Fc1ccc2nc(Nc3nc4c(F)cc(F)cc4s3)sc2c1`, the current change vs dofetilide control, less the hit threshold is -49% (inactive).

Take `CC(=O)c1c(C)c2c(n1CCN(C)C)CCCC2`: the current change vs dofetilide control, less the hit threshold was -56.2% (inactive).

As to `CCOC(=O)c1c(C)[nH]c(C)c1S(=O)(=O)N1CCCCC1`, the current change vs dofetilide control, less the hit threshold was -31.9% (inactive).

As to `Cc1ccc(Cn2nnc3c(=O)n(CC(=O)N4CCCc5ccccc54)cnc32)cc1`, the current change vs dofetilide control, less the hit threshold is -41.2% (inactive).

For the molecule `CC(C)Oc1c(Cl)cc(CNC(C)(C)CO)cc1Cl`, the current change vs dofetilide control, less the hit threshold is -52.1% (inactive).

With `CCOC(=O)N1CCN(C(=O)c2ccc(CN(c3ccc(C)c(C)c3)S(C)(=O)=O)cc2)CC1`, the current change vs dofetilide control, less the hit threshold was -30.1% (inactive).

Take `CC1CN(S(=O)(=O)c2ccc(-c3nc4ccccc4s3)cc2)CC(C)O1` (centres undefined): the current change vs dofetilide control, less the hit threshold is -45% (inactive).

Take `O=C(c1csc(Nc2ccccc2Cl)n1)N1CCCC1`: the current change vs dofetilide control, less the hit threshold was -45.9% (inactive).

As for `COC(=O)c1ccc(CSc2ncnc3sc(C)c(C)c23)o1`, the current change vs dofetilide control, less the hit threshold is -48.9% (inactive).

For the molecule `Clc1cccc(OCCCN2CCCC2)c1Cl`, the current change vs dofetilide control, less the hit threshold is -77.4% (inactive).

Regarding `CN(C(=O)c1ccc(Cl)c(S(=O)(=O)N2CCOCC2)c1)c1ccccc1C(=O)O`, the current change vs dofetilide control, less the hit threshold was -64.9% (inactive).

With `Cc1ccc(C)c2sc(NC(=O)c3nc4ccccc4s3)nc12`, the current change vs dofetilide control, less the hit threshold is -46.9% (inactive).

On to `CCOC(=O)N1CCN(C(=O)c2ccc(Cl)c(S(=O)(=O)Nc3ccccc3)c2)CC1`, for which the current change vs dofetilide control, less the hit threshold was -58.5% (inactive).

For `Cc1ccc(C(=O)Nc2nc3ccccc3c(=O)s2)cc1`, the current change vs dofetilide control, less the hit threshold was -52.6% (inactive).

On to `Cc1ccc(C(C#N)c2ccc3c(C(F)(F)F)cc(C(F)(F)F)nc3n2)cc1` (centres undefined), for which the current change vs dofetilide control, less the hit threshold is -59.8% (inactive).

As for `CN(Cc1ccccc1)C(=O)CCc1ccccc1`, the current change vs dofetilide control, less the hit threshold was -53.5% (inactive).

In the case of `Cc1nonc1CN(C)C(=O)c1ccc(OC2CCN(Cc3ccccn3)CC2)cc1`, the current change vs dofetilide control, less the hit threshold is -69.9% (inactive).

Regarding `CCc1ccc(C(C)NC(=O)C2CCCC2)cc1` (centres undefined), the current change vs dofetilide control, less the hit threshold is -41.5% (inactive).
